Laboratory results taken from paper PMC7049213, “Nerylneryl diphosphate is the precursor of serrulatane, viscidane and cembrane-type diterpenoids in Eremophila species” (BMC Plant Biology, 2020).

Key:
Assay in all cases: co-expression with SlCPT2 in E. coli and N. benthamiana, GC-MS
Assay type in all cases: cell-based
Conditions in all cases: NNPP formed in cells by SlCPT2; E. coli 18 °C, 48 h
ElTPS3 = molecular target: T1, ElTPS3 (Eremophila lucida, UniProt A0A6G9KVC7)
T1 construct: full length in N. benthamiana; TPS-a class I
T1 sequence (A0A6G9KVC7 entry or part of it): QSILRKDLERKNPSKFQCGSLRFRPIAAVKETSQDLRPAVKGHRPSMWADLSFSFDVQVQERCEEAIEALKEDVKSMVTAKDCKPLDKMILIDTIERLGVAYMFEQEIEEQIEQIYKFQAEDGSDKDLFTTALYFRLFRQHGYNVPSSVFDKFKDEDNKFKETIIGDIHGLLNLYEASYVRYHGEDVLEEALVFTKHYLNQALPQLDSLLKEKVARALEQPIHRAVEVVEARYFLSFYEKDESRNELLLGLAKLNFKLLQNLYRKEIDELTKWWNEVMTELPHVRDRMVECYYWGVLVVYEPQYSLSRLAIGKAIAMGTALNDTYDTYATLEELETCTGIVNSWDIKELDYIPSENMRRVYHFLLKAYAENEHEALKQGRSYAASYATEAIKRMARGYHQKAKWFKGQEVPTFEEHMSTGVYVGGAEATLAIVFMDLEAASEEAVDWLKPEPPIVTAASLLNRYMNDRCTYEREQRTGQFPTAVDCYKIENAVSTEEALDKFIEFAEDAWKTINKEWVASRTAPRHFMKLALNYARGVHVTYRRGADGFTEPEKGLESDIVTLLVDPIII

EdTPS22 = molecular target: T2, EdTPS22 (Eremophila drummondii, UniProt A0A6G9KSU3)
T2 construct: full length in N. benthamiana; TPS-a class I
T2 sequence (A0A6G9KSU3 entry or part of it): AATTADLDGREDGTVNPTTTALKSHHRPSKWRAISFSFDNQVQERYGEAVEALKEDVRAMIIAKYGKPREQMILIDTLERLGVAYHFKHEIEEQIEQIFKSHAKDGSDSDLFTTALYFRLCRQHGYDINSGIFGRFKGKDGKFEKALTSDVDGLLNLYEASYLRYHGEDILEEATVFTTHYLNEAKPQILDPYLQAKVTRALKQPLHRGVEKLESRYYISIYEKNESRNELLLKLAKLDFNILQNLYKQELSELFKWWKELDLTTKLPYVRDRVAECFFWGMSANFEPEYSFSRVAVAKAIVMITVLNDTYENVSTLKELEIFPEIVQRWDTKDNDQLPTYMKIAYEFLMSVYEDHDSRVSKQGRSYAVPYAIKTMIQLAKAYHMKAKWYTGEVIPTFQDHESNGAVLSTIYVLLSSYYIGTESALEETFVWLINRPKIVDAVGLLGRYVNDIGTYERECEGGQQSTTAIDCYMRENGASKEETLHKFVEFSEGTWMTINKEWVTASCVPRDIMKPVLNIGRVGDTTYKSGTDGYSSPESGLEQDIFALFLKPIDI

ElTPS31 = molecular target: T3, ElTPS31 (Eremophila lucida, UniProt A0A6G9KSS8)
T3 construct: full length in N. benthamiana; TPS-b class I
T3 sequence (A0A6G9KSS8 entry or part of it): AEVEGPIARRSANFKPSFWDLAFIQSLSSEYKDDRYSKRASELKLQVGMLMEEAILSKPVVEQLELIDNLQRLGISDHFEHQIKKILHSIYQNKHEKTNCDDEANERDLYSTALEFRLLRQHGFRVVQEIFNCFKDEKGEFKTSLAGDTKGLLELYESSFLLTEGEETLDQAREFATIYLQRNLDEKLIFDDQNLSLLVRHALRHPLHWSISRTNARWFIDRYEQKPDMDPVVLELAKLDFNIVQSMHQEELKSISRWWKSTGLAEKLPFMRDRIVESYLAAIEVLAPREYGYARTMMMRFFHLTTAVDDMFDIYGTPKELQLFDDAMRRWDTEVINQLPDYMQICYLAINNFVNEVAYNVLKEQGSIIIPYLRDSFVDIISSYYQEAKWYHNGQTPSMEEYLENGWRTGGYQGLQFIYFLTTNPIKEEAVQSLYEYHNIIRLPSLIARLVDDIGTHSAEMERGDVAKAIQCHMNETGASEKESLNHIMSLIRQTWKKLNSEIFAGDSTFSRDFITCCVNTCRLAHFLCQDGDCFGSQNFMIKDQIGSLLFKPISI

EdtTPS4 = molecular target: T4, EdtTPS4 (Eremophila denticulata, UniProt A0A6G9KV06)
T4 construct: full length in N. benthamiana; TPS-a class I
T4 sequence (A0A6G9KV06 entry or part of it): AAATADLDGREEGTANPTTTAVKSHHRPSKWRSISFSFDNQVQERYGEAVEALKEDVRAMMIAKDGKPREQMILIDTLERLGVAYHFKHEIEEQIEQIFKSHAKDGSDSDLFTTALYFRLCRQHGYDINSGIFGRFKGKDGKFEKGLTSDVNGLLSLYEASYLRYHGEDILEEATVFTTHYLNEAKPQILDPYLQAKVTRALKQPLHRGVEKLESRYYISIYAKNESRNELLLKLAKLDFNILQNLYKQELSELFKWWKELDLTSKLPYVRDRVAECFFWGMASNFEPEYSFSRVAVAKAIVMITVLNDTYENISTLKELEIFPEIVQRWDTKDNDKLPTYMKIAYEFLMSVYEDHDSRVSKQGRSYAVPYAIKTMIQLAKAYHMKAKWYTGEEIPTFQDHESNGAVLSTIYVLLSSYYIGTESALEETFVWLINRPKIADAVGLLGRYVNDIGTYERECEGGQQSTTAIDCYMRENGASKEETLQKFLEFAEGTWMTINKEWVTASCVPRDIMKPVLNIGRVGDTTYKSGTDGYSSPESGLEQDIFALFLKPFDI

CC(C)=CCC/C(C)=C\CC/C(C)=C\CC/C(C)=C\COP(=O)(O)OP(=O)(O)O [nerylneryl diphosphate]
co-expression with SlCPT2 in E. coli and N. benthamiana, GC-MS (ElTPS3): co-expression of either one of ElTPS3, ElTPS31, EdtTPS4 or EdTPS22 with NNPP-forming SlCPT2 | co-expression with SlCPT2 in E. coli and N. benthamiana, GC-MS (EdTPS22): co-expression of either one of ElTPS3, ElTPS31, EdtTPS4 or EdTPS22 with NNPP-forming SlCPT2 | co-expression with SlCPT2 in E. coli and N. benthamiana, GC-MS (ElTPS31): co-expression of either one of ElTPS3, ElTPS31, EdtTPS4 or EdTPS22 with NNPP-forming SlCPT2 | co-expression with SlCPT2 in E. coli and N. benthamiana, GC-MS (EdtTPS4): co-expression of either one of ElTPS3, ElTPS31, EdtTPS4 or EdTPS22 with NNPP-forming SlCPT2
